Patent US6713603B2, “Chiral peptide nucleic acids” (Isis Innovation Limited, priority 1996, dated 2004)
[cPNA-N] = chiral peptide nucleic acid unit: glycyl-D-proline with cis-4-nucleobase (N: the base); {LysNH2} = C-terminal L-lysinamide cap

Assays:
Sequence ID No. 3 = test: Tm of mixed-base cPNA hybridised with complementary oligonucleotide Sequence ID No. 3; type: binding
Excerpt: (§1) All four bases found in DNA were introduced into the glycyiproline building units with the cis-D configuration and from these mixed cPNAs containing all four nucleobases have been made. The sequence GTAGATCACT, capped at its C-terminus with L-lysinamide was synthesized, and its binding properties with oligonucleotides investigated. Since it is important to determine the preferred orientation of binding of these novel CPNAs to oligonucleotides, both of the possible complementary oligonucleotides were prepared, i.e. Sequence ID No. 2, and Sequence ID No. 3, and hybridised with the chiral PNA.
(§2) All the Tm measurements were carried out on a Varian CARY 13 UV spectrophotometer equipped with a temperature control system. […] The sample for Tm measurement was prepared by mixing calculated amounts of stock oligonucleotide and nucleopeptide solutions together and the calculated amounts of NaCl and sodium phosphate buffer (pH 7.0) were then added as stock solutions and the final volumes were adjusted to 3.0 ml by addition of water. […] The OD260 was recorded in steps from 5-95° C. (heater temperature) with a temperature increment of 0.25-0.5° C./min, The results were normalised by dividing the absorbance at each temperature by the initial absorbance. […] The melting temperatures were determined from the maxima of the first derivative plots of the normalised OD260 against temperature. […]

[1] = system: complementary oligonucleotides; test: 1H NMR experiment: mixing cPNA with complementary oligonucleotides (solubility of complex); type: physicochemical; details: mmolar concentration
Protocol: Following the promising results obtained on the binding is studies of the cPNA with complementary oligonucleotides by Tm measurement, a ^1H NMR experiment was performed on the mixed sequence decamer, H-Gly-D-Pro(cis-4-G)-Gly-D-Pro(cis-4-T)-Gly-D-Pro(cis-4-A)-Gly-D-Pro(cis-4-G)-Gly-D-Pro(cis-4-A)-Gly-D-Pro(cis-4-T)-Gly-D-Pro(cis-4-C)-Gly-D-Pro(cis-4-A)-Gly-D-Pro(cis-4-C)-Gly-D-Pro(cis-4-T)-LysNH2, and its complementary oligonucleotides, both in parallel and antiparallel fashion. […] In an attempt to overcome this problem it was decided to synthesise a cPNA analogue, containing a hydrophilic spacer amino acid—namely serine—in place of the glycine spacer in the backbone while retaining the cis-D-configuration of the proline moiety. […] Thus the target molecules were diastereomeric thymine-decamers H-[L-Ser-D-Pro(cis-4-T)]10LysNH2 (“LD-ST10”) and H-[D-Ser-D-Pro(cis-4-T)]10LysNH2 (“DD-ST10”).

Solubility in water = type: physicochemical
Sequence ID No. 2 = test: Tm of mixed-base cPNA hybridised with complementary oligonucleotide Sequence ID No. 2; type: binding
Excerpt: as §1, §2

dA10 [2] = test: 1H NMR experiment: mixing DD-ST10 with dA10 (solubility of complex); type: physicochemical; details: 0.5 mM DD-ST10 in 10% D2O-H2O
Protocol: A ^1H NMR study of a mixture of DD-ST10 and dA10 was attempted.
^1H NMR study of a mixture of DD-ST10 and dA10 was performed on a Bruker AMX 500 spectrometer (500 MHz). The ^1H NMR spectra of DD-ST10 and dA10 were recorded separately (at a concentration of 0.53 mM for the DD-ST10 and 0.67 mM for the dA10 in 10% D2O in H2O).

(dT)10 = test: Melting curve of 1:1 mixture with (dT)10; type: binding
Protocol: (§3) Further investigation of the nature of the cis-D peptide nucleic acid-oligonucleotide interaction was undertaken by determining the melting curve with (dT)10.
All the Tm measurements were carried out on a Varian CARY 13 UV spectrophotometer equipped with a temperature control system. The machine was controlled by a CARY 13 software running on an IBM PS/2 system model 30/286. The sample for Tm measurement was prepared by mixing calculated amounts of stock oligonucleotide and nucleopeptide solutions together and the calculated amounts of NaCl and sodium phosphate buffer (pH 7.0) were then added as stock solutions and the final volumes were adjusted to 3.0 ml by addition of water. The samples were transferred to a 10 mm quartz cell with teflon stopper and equilibrated at the starting temperature for at least 30 min. The OD260 was recorded in steps from 5-95° C. (heater temperature) with a temperature increment of 0.25-0.5° C./min, The results were normalised by dividing the absorbance at each temperature by the initial absorbance. […] The melting temperatures were determined from the maxima of the first derivative plots of the normalised OD260 against temperature. Percent hyperchromicity was calculated from the ratio of the OD260 at the end of experiment to the initial OD260.

poly(rA) = test: Melting curves (Tm) of 1:1 hybrids of cPNAs with poly(rA); type: binding; details: 150 mM sodium chloride, 10 mM sodium phosphate pH 7.0; for Tm with poly (rA): 1:1 hybrid, 260 nm; for % hypochromicity with poly (rA): from melting curves at 260 nm
Protocol: (§4) The deca-thymine glycyl-proline peptide nucleic acids with cis-L, trans-D and cis-D stereochemistry, and C-terminal L-lysinamide were mixed in 1:1 ratio with poly(rA) and poly(dA) in the presence of 150 mM NaCl and sodium phosphate buffer (10 mM Na^+, pH 7.0) and the Tm determined (FIG. 3). […] The magnitudes of absorbance change were of the order of 30-40%.
(§5) All the Tm measurements were carried out on a Varian CARY 13 UV spectrophotometer equipped with a temperature control system. The machine was controlled by a CARY 13 software running on an IBM PS/2 system model 30/286. The sample for Tm measurement was prepared by mixing calculated amounts of stock oligonucleotide and nucleopeptide solutions together and the calculated amounts of NaCl and sodium phosphate buffer (pH 7.0) were then added as stock solutions and the final volumes were adjusted to 3.0 ml by addition of water. The samples were transferred to a 10 mm quartz cell with teflon stopper and equilibrated at the starting temperature for at least 30 min. The OD260 was recorded in steps from 5-95° C. (heater temperature) with a temperature increment of 0.25-0.5° C./min, The results were normalised by dividing the absorbance at each temperature by the initial absorbance. Analysis of the data was performed on a KaleidaGraph software 2.1.3 (Abelbeck Software) running on a Macintosh LC III computer. The OD260 was normalised by dividing with the initial OD260. The melting temperatures were determined from the maxima of the first derivative plots of the normalised OD260 against temperature. Percent hyperchromicity was calculated from the ratio of the OD260 at the end of experiment to the initial OD260.

poly(dA) = test: Melting curves (Tm) of 1:1 hybrids of cPNAs with poly(dA); type: binding; details: for Tm with poly (dA): 1:1 hybrid, 260 nm; for Tm with poly (dA) / % hypochromicity with poly (dA): 150 mM sodium chloride, 10 mM sodium phosphate pH 7.0; for % hypochromicity with poly (dA): from melting curves at 260 nm
Protocol: as §4
FIG. 3. The melting curves of the 1:1 hybrids of (a) H-[Gly-L-Pro(cis-4-T)]10-Lys-NH2, (b) H-[Gly-D-Pro(cis-4-T)]10-Lys-NH2, (c) H-[Gly-D-Pro(trans-4-T)]10-Lys-NH2 with poly(dA) at 150 mM NaCl, 10 mM sodium phosphate, pH 7.0 and (d) poly(dA) alone. The poly(dA) concentration was 10.8 μM dA nucleotide. The melting curves were recorded at 260 nm and the rate of heating was 0.5° C./min.
as §5

dA10 [3] = test: Melting curves (Tm) of hybrids of cPNAs with dA10; type: binding; details: 260 nm; for Tm with dA10: 150 mM sodium chloride, 10 mM sodium phosphate pH 7.0
Protocol: Although both cis-D and cis-L analogues gave melting curves with poly(dA) and poly(rA), only the cis-D analogue gave a well-defined melting curve with (dA)10, with Tm=61° C., under the same conditions.
as §3, §5

Question: Which melting point does the source give for `Cc1cn([C@H]2C[C@@H](C(=O)O)N(C(=O)CNC(=O)OCC3c4ccccc4-c4ccccc43)C2)c(=O)[nH]c1=O` [5a, N-(N-Fluoren-9-ylmethoxycarbonylglycyl)-cis-4-(thymin-1-yl)-L-proline] here?
Answer: > 200 °C

Question: For `Cc1cn([C@H]2C[C@H](C(=O)O)N(C(=O)CNC(=O)OCC3c4ccccc4-c4ccccc43)C2)c(=O)[nH]c1=O` [5b, N-(N-Fluoren-9-ylmethoxycarbonylglycyl)-trans-4-(thymin-1-yl)-D-proline], which melting point is on record?
Answer: > 200 °C

Question: Which melting point does the source give for `Cc1cn([C@@H]2C[C@H](C(=O)O)N(C(=O)CNC(=O)OCC3c4ccccc4-c4ccccc43)C2)c(=O)[nH]c1=O` [5c, N-(N-Fluoren-9-ylmethoxycarbonylglycyl)-cis-4-(thymin-1-yl)-D-proline] here?
Answer: > 200 °C

Question: Which melting point does the source give for `Cc1cn([C@H]2C[C@@H](C(=O)Oc3c(F)c(F)c(F)c(F)c3F)N(C(=O)CNC(=O)OCC3c4ccccc4-c4ccccc43)C2)c(=O)[nH]c1=O` [6a, N-(N-Fluoren-9-ylmethoxycarbonylglycyl)-cis-4-(thymin-1-yl)-L-proline pentafluorophenyl ester] here?
Answer: 124 to 126 °C

Question: With `Cc1cn([C@H]2C[C@H](C(=O)Oc3c(F)c(F)c(F)c(F)c3F)N(C(=O)CNC(=O)OCC3c4ccccc4-c4ccccc43)C2)c(=O)[nH]c1=O` [6b, N-(N-Fluoren-9-ylmethoxycarbonylglycyl)-trans-4-(thymin-1-yl)-D-proline pentafluorophenyl ester] as the molecule, how does the melting point read?
Answer: 115 to 124 °C

Question: Which melting point does the source give for `Cc1cn([C@@H]2C[C@H](C(=O)Oc3c(F)c(F)c(F)c(F)c3F)N(C(=O)CNC(=O)OCC3c4ccccc4-c4ccccc43)C2)c(=O)[nH]c1=O` [6c, N-(N-Fluoren-9-ylmethoxycarbonylglycyl)-cis-4-(thymin-1-yl)-D-proline pentafluorophenyl ester] here?
Answer: 122 to 126 °C

Question: Which melting point does the source give for `O=C(NCC(=O)N1C[C@H](n2cnc3c(NC(=O)c4ccccc4)ncnc32)C[C@@H]1C(=O)Oc1c(F)c(F)c(F)c(F)c1F)OCC1c2ccccc2-c2ccccc21` [compound 10, N-(N-Fluoren-9-ylmethoxycarbonylglycyl)-cis-4-(N6-benzoyladenin-9-yl)-D-proline pentafluorophenyl ester] here?
Answer: 125 to 130 °C

Question: With `O=C(NCC(=O)N1C[C@H](n2ccc(NC(=O)c3ccccc3)nc2=O)C[C@@H]1C(=O)Oc1c(F)c(F)c(F)c(F)c1F)OCC1c2ccccc2-c2ccccc21` [compound 13, N-(N-Fluoren-9-ylmethoxycarbonylglycyl)-cis-4-(N4-benzoylcytosin-1-yl)-D-proline pentafluorophenyl ester] as the molecule, how does the melting point read?
Answer: 133 to 137 °C

Question: For `CC(C)C(=O)Nc1nc2c(ncn2[C@@H]2C[C@H](C(=O)Oc3c(F)c(F)c(F)c(F)c3F)N(C(=O)CNC(=O)OCC3c4ccccc4-c4ccccc43)C2)c(=O)[nH]1` [compound 16, N-(N-Fluoren-9-ylmethoxycarbonylglycyl)-cis-4-(N2-isobutyrylguanin-9-yl)-D-proline pentafluorophenyl ester], which melting point is on record?
Answer: 146 to 150 °C

Question: For “H-Gly-D-Pro(cis-4-G)-Gly-D-Pro(cis-4-T)-Gly-D-Pro(cis-4-A)-Gly-D-Pro(cis-4-G)-Gly-D-Pro(cis-4-A)-Gly-D-Pro(cis-4-T)-Gly-D-Pro(cis-4-C)-Gly-D-Pro(cis-4-A)-Gly-D-Pro(cis-4-C)-Gly-D-Pro(cis-4-T)-Lys-NH2 (GTAGATCACT; all [cPNA-N], 3' {LysNH2}, methylation of C not given here; glycyl-D-proline chiral PNA backbone, free N-terminus)”, which “Tm with complementary oligonucleotide Sequence ID No. 3” value (Sequence ID No. 3) is on record?
Answer: 43 °C

Question: And the “behaviour on mixing with complementary oligonucleotides (parallel and antiparallel)” value [1]?
Answer: a white precipitate formed immediately

Question: What about the “solubility in water of the cPNA alone” value (Solubility in water) of the same molecule?
Answer: freely soluble

Question: What about the “Tm with complementary oligonucleotide Sequence ID No. 2” value (Sequence ID No. 2) of the same molecule?
Answer: 47 °C

Question: Which “behaviour on addition of 20 mol % of dA10” value (dA10 [2]) does the source give for “H-[D-Ser-D-Pro(cis-4-T)]10LysNH2 [DD-ST10]” here?
Answer: an immediate precipitation occurred

Question: With “H-[Gly-D-Pro(cis-4-T)]10-Lys-NH2 [H-[Gly-D-Pro(cis-4-T)]10-LysNH2]” as the molecule, how does the “increase in absorbance at 260 nm on heating, 1:1 mixture with (dT)10” value ((dT)10) read?
Answer: no significant increase

Question: What about the “Tm with poly (rA)” value (poly(rA)) of the same molecule?
Answer: 72 °C

Question: And the “% hypochromicity with poly (rA)” value (poly(rA))?
Answer: 45%

Question: What about the “Tm with poly (dA)” value (poly(dA)) of the same molecule?
Answer: 70 °C

Question: And the “binding with poly(dA), comparison of the 10 mers” value (poly(dA); 10 mers derived from (6a), (6b) and (6c))?
Answer: binds most strongly

Question: And the “% hypochromicity with poly (dA)” value (poly(dA))?
Answer: 28%

Question: What about the “Tm with dA10” value (dA10 [3]) of the same molecule?
Answer: 61 °C

Question: What about the “hyperchromicity of 1:1 mixture with (dA)10” value (dA10 [3]; on heating) of the same molecule?
Answer: ca. 20%

Question: With “H-[Gly-D-Pro(trans-4-T)]10-Lys-NH2 [H-[Gly-D-Pro(trans-4-T)]10-LysNH2]” as the molecule, how does the “Tm with poly (rA)” value (poly(rA)) read?
Answer: No melting

Question: What about the “Tm with poly (dA)” value (poly(dA)) of the same molecule?
Answer: No melting

Question: And the “solubility in water compared with the other T10 cPNAs” value (Solubility in water)?
Answer: considerably more soluble than the other two

Question: What about the “Tm with dA10” value (dA10 [3]) of the same molecule?
Answer: No melting

Question: With “H-[Gly-L-Pro(cis-4T)]10-Lys-NH2 [H-[Gly-L-Pro(cis-4-T)]10-LysNH2]” as the molecule, how does the “Tm with poly (rA)” value (poly(rA)) read?
Answer: 73 °C

Question: And the “% hypochromicity with poly (rA)” value (poly(rA))?
Answer: 36%

Question: What about the “Tm with poly (dA)” value (poly(dA)) of the same molecule?
Answer: 69 °C

Question: And the “% hypochromicity with poly (dA)” value (poly(dA))?
Answer: 40%

Question: What about the “Tm with dA10” value (dA10 [3]) of the same molecule?
Answer: 42 °C

Question: And the “Tm with dA10” value (dA10 [3]; listed as cis-L analogue)?
Answer: near room temperature
